This passage reports IC50 results from patent US20260285853A1, “COMPOUNDS AND METHODS FOR MODULATING SPLICING” (REMIX THERAPEUTICS INC., priority 2023, published 2026).

Some results are limits rather than exact numbers.

Holding throughout (test): Gene panel canonical junction qPCR assay, decrease in CJ mRNA, Table 3
Type in all cases: cell-based
Settings in all cases: decrease in canonical junction (CJ) mRNA, gene panel qPCR, Table 3
For orientation: In qPCR the cycle at which signal appears reflects the starting amount.

The subject of one assay is SMN2 mRNA. The essentials:
(§1)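 A673 cells were plated, left to adhere for 24 h, then dosed; K562 cells were plated in 96- or 384-well format and dosed directly. Both were incubated 24 h at 37 °C with an 11-point 3-fold series (top 10 uM final). Canonical junction mRNA was then read by cDNA synthesis and qPCR.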

For a further assay, the system named is HTT mRNA. The essentials: as §1
The next assay has as its system MYB mRNA. The procedure, abridged: as §1

By IC50 is commonly meant the concentration that inhibits the measured activity by half. Read a high IC50 as lower potency. Turning to `CCNC1CCN(c2ccc(C(=O)Nc3cc(C)c4nc(C)cn4n3)c3nn(C)cc23)CC1` [Compound 186, N-(2,8-dimethylimidazo [1,2-b]pyridazin-6-yl)-4-[4-(ethylamino)-1-piperidyl]-2-methyl-indazole-7-carboxamide], the IC50 in the assay with SMN2 mRNA, in the assay on HTT mRNA and in the assay on MYB mRNA was 100 to 1000 nM each time.

As for `Cc1cn2nc(NC(=O)c3ccc(N4CCC(NC5CC5)CC4)c4cn(C)nc34)cc(C)c2n1` [Compound 187, 4-[4-(cyclopropylamino)-1-piperidyl]-N-(2,8-dimethylimidazo-[1,2-b]pyridazin-6-yl)-2-methyl-indazole-7-carboxamide], the IC50 in the assay with SMN2 mRNA, in the assay on HTT mRNA and with MYB mRNA was 100 to 1000 nM in each case.

Consider `CCNC1CCN(c2ccc(C(=O)Nc3cc(F)c4nc(C)c(C)n4c3)c3nn(C)cc23)CC1` [Compound 188, 4-[4-(ethylamino)-1-piperidyl]-N-(8-fluoro-2,3-dimethyl-imidazo[1,2-a]pyridin-6-yl)-2-methyl-indazole-7-carboxamide], for which the IC50 in the assay on SMN2 mRNA, with HTT mRNA and in the assay with MYB mRNA was over 10000 nM each time.

As for `Cc1nc2c(F)cc(NC(=O)c3ccc(N4CCC(NC5CC5)CC4)c4cn(C)nc34)cn2c1C` [Compound 189, 4-[4-(cyclopropylamino)-1-piperidyl]-N-(8-fluoro-2,3-dimethyl-imidazo[1,2-a]pyridin-6-yl)-2-methyl-indazole-7-carboxamide], the IC50 with SMN2 mRNA, in the assay with HTT mRNA and in the assay on MYB mRNA was over 10000 nM each time.

In the case of `CCNC1CCN(c2ccc(C(=O)Nc3cc4cn(C)nc4cc3O)c3[nH]ccc23)CC1` [Compound 190, 4-[4-(ethylamino)-1-piperidyl]-N-(6-hydroxy-2-methyl-indazol-5-yl)-1H-indole-7-carboxamide], the IC50 in the assay on SMN2 mRNA, with HTT mRNA and with MYB mRNA was over 10000 nM throughout.

For the compound `Cc1cn2cc(NC(=O)c3ccc(N4CCC(NC5CC5)CC4)c4ccoc34)cc(F)c2n1` [Compound 191, 4-[4-(cyclopropylamino)-1-piperidyl]-N-(8-fluoro-2-methyl-imidazo[1,2-a]pyridin-6-yl) benzofuran-7-carboxamide], the IC50 with SMN2 mRNA was under 100 nM; in the assay on HTT mRNA, 1000 to 10000 nM; with MYB mRNA it was 100 to 1000 nM.

On to `Cc1cn2cc(NC(=O)c3ccc(C4CCC(NC5CC5)CC4)c4cn(C)nc34)cc(F)c2n1` (stereo not drawn) [Compound 192, 4-[4-(cyclopropylamino)cyclohexyl]-N-(8-fluoro-2-methyl-imidazo[1,2-a]pyridin-6-yl)-2-methyl-indazole-7-carboxamide], for which the figures for the IC50 in the assay on SMN2 mRNA, in the assay on HTT mRNA and in the assay with MYB mRNA were under 100 nM, 100 to 1000 nM and 100 to 1000 nM, respectively.

For the compound `CCNC1CCN(c2ccc(C(=O)Nc3cc(F)c4nc(CO)cn4c3)c3nn(C)cc23)CC1` [Compound 193, 4-[4-(ethylamino)-1-piperidyl]-N-[8-fluoro-2-(hydroxymethyl)imidazo[1,2-a]pyridin-6-yl]-2-methyl-indazole-7-carboxamide], the results for the IC50 with SMN2 mRNA, in the assay with HTT mRNA and with MYB mRNA were under 100 nM, over 10000 nM and 100 to 1000 nM, respectively.

For `Cc1cn2cc(NC(=O)c3ccc(C4CNCCO4)c4[nH]cnc34)cc(F)c2n1` (stereo not drawn) [Compound 194, N-(8-fluoro-2-methyl-imidazo[1,2-a]pyridin-6-yl)-7-morpholin-2-yl-1H-benzimidazole-4-carboxamide], the IC50 in the assay with SMN2 mRNA was under 100 nM; in the assay with HTT mRNA, 1000 to 10000 nM; in the assay on MYB mRNA, 100 to 1000 nM.

`CCNC1CCN(c2cc(F)c(C(=O)Nc3cc(F)c4nc(C)cn4c3)c3ccoc23)CC1` [Compound 195, 7-[4-(ethylamino)-1-piperidyl]-5-fluoro-N-(8-fluoro-2-methylimidazo[1,2-a]pyridin-6-yl)-benzofuran-4-carboxamide]: the results for the IC50 in the assay with SMN2 mRNA, in the assay on HTT mRNA and with MYB mRNA were 1000 to 10000 nM, over 10000 nM and over 10000 nM, respectively.

As to `CCNC1CCN(c2ccc(C(=O)Nc3cc(F)c4nc(C)cn4c3)c3nn(C)nc23)CC1` [Compound 196, 7-[4-(ethylamino)piperidin-1-yl]-N-(8-fluoro-2-methyl-imidazo[1,2-a]pyridin-6-yl)-2-methyl-1,2,3-benzotriazole-4-carboxamide], the IC50 in the assay on SMN2 mRNA is under 100 nM; in the assay with HTT mRNA, 100 to 1000 nM; with MYB mRNA it was 100 to 1000 nM.

Consider `CNC1(C)CCN(c2ccc(C(=O)Nc3cn4cc(C)nc4c(OC)n3)c3nn(C)cc23)CC1` [Compound 197, N-(8-methoxy-2-methylimidazo[1,2-a]pyrazin-6-yl)-2-methyl-4-(4-methyl-4-(methylamino)piperidin-1-yl)-2H-indazole-7-carboxamide], for which the IC50 with SMN2 mRNA, in the assay with HTT mRNA and in the assay on MYB mRNA was under 100 nM each time.

Turning to `CCNC1CCN(c2ccc(C(=O)Nc3cc(F)c4nc(C)cn4c3)c3c2nnn3C)CC1` [Compound 198, 4-(4-(ethylamino)piperidin-1-yl)-N-(8-fluoro-2-methylimidazo[1,2-a]pyridin-6-yl)-1-methyl-1H-benzo[d][1,2,3]triazole-7-carboxamide 2,2,2-trifluoroacetate], the IC50 in the assay with SMN2 mRNA, with HTT mRNA and in the assay with MYB mRNA was over 10000 nM in each case.

With `CCNC1CCN(c2ccc(C(=O)Nc3cc(F)c4nc(C)cn4c3)c3nnn(C)c23)CC1` [Compound 199, 7-[4-(ethylamino)-1-piperidyl]-N-(8-fluoro-2-methylimidazo[1,2-a]-pyridin-6-yl)-1-methylbenzotriazole-4-carboxamide], the IC50 is under 100 nM in the assay with SMN2 mRNA, over 10000 nM in the assay on HTT mRNA and 100 to 1000 nM with MYB mRNA.

For the compound `CCNC1CCN(c2ccc(C(=O)Nc3cc(F)c4nc(C)oc4c3)c3nn(C)cc23)CC1` [Compound 200, 4-(4-(ethylamino)piperidin-1-yl)-N-(4-fluoro-2-methylbenzo[d]-oxazol-6-yl)-2-methyl-2H-indazole-7-carboxamide], the IC50 with SMN2 mRNA was under 100 nM; with HTT mRNA, 100 to 1000 nM; in the assay with MYB mRNA, 100 to 1000 nM.

As to `CCNC1CCN(c2ccc(C(=O)Nc3cc(F)c4nc(CC)cn4c3)c3nn(C)cc23)CC1` [Compound 201, 4-[4-(ethylamino)-1-piperidyl]-N-(2-ethyl-8-fluoro-imidazo[1,2-a]pyridin-6-yl)-2-methyl-indazole-7-carboxamide], the IC50 in the assay with SMN2 mRNA was 100 to 1000 nM; in the assay on HTT mRNA it was 1000 to 10000 nM; in the assay on MYB mRNA, 1000 to 10000 nM.

In the case of `CCNC1CCN(c2ccc(C(=O)Nc3cc(F)c4nc(CF)cn4c3)c3nn(C)cc23)CC1` [Compound 202, 4-[4-(ethylamino)-1-piperidyl]-N-[8-fluoro-2-(fluoromethyl)imidazo[1,2-a]pyridin-6-yl]-2-methyl-indazole-7-carboxamide], the IC50 is under 100 nM in the assay on SMN2 mRNA, 1000 to 10000 nM with HTT mRNA and under 100 nM with MYB mRNA.

Turning to `Cc1cn2cc(NC(=O)c3ccc(N4CCC(NC5CC56CC6)CC4)c4cn(C)nc34)cc(F)c2n1` (stereo not drawn) [Compound 203, N-(8-fluoro-2-methyl-imidazo[1,2-a]-pyridin-6-yl)-2-methyl-4-[4-(spiro[2.2]pentan-2-ylamino)-1-piperidyl] indazole-7-carboxamide], the IC50 in the assay on SMN2 mRNA was under 100 nM; in the assay on HTT mRNA, 100 to 1000 nM; in the assay on MYB mRNA, under 100 nM.

With `Cc1cn2cc(NC(=O)c3ccc(N4CCC(NC5CC5C)CC4)c4cn(C)nc34)cc(F)c2n1` (stereo not drawn) [Compound 204, N-(8-fluoro-2-methyl-imidazo[1,2-a]pyridin-6-yl)-2-methyl-4-[4-[(2-methyl-cyclopropyl)amino]-1-piperidyl] indazole-7-carboxamide], the IC50 with SMN2 mRNA was under 100 nM; with HTT mRNA, 100 to 1000 nM; with MYB mRNA, under 100 nM.

As to `Cc1cn2cc(NC(=O)c3ccc(N4CCC(NC5CC5(C)C)CC4)c4cn(C)nc34)cc(F)c2n1` (stereo not drawn) [Compound 205, 4-(4-((2,2-dimethylcyclopropyl)amino)piperidin-1-yl)-N-(8-fluoro-2-methylimidazo[1,2-a]pyridin-6-yl)-2-methyl-2H-indazole-7-carboxamide], the IC50 in the assay on SMN2 mRNA was under 100 nM; in the assay with HTT mRNA it was 1000 to 10000 nM; with MYB mRNA, under 100 nM.

Consider `CCNC1CCN(c2ccc(C(=O)Nc3cn4cc(C)nc4c(OC)n3)c3nn(C)cc23)CC1` [Compound 206, 4-[4-(ethylamino)-1-piperidyl]-N-(8-methoxy-2-methyl-imidazo[1,2-a]pyrazin-6-yl)-2-methyl-indazole-7-carboxamide], for which the figures for the IC50 in the assay on SMN2 mRNA, with HTT mRNA and in the assay with MYB mRNA were under 100 nM, 100 to 1000 nM and under 100 nM, respectively.

Regarding `COc1c(NC(=O)c2c(F)cc(N3CCC(NC4CC4)CC3)c3cn(C)nc23)cn2cc(C)nc2c1F` [Compound 207, 4-[4-(cyclopropylamino)-1-piperidyl]-6-fluoro-N-(8-fluoro-7-methoxy-2-methyl-imidazo[1,2-a]pyridin-6-yl)-2-methyl-indazole-7-carboxamide], the IC50 in the assay on SMN2 mRNA, with HTT mRNA and in the assay with MYB mRNA was under 100 nM each time.

With `COc1nc2c(C(=O)Nc3cc(F)c4nc(C)cn4c3)ccc(N3CCC(N)CC3)c2s1` [Compound 208, 7-(4-aminopiperidin-1-yl)-N-(8-fluoro-2-methylimidazo[1,2-a]pyridin-6-yl)-2-methoxybenzo[d]thiazole-4-carboxamide], the IC50 was under 100 nM in the assay with SMN2 mRNA, 100 to 1000 nM with HTT mRNA and under 100 nM with MYB mRNA.

Regarding `Cc1cn2cc(NC(=O)c3ccc(N4CCC(NC5CC5)CC4)c4cc(C)nn34)cc(F)c2n1` [Compound 209, 4-[4-(cyclopropylamino)-1-piperidyl]-N-(8-fluoro-2-methyl-imidazo[1,2-a]pyridin-6-yl)-2-methyl-pyrazolo[1,5-a]pyridine-7-carboxamide], the IC50 was under 100 nM with SMN2 mRNA, 100 to 1000 nM in the assay with HTT mRNA and under 100 nM in the assay on MYB mRNA.
